Key:
[1] = 293.15 K; 101.33 kPa; Liquid; Sing-around technique in a fixed-path interferometer
[2] = xn = mol fraction of the nth substance listed; details: 293.15 K, 101 kPa, Liquid; for speed of sound: Sing-around technique in a fixed-path interferometer

CC(C)CO [2-methyl-1-propanol]
Details	speed of sound [m/s]
[1]	1204.1

CCCCCC [hexane] + CCCCO
[2]
Details	mass density [kg/m3]	speed of sound [m/s]
x2 = 0.00305	659.9	1099
x2 = 0.04764	664.4	1099.2
x2 = 0.1026	670.3	1099.8
x2 = 0.1225	672.4	1100.5
x2 = 0.1509	675.6	1101.6
x2 = 0.2261	684.4	1105.9
x2 = 0.2979	693.4	1112.1
x2 = 0.4965	720.9	1140
x2 = 0.6128	738.8	1160.2
x2 = 0.6817	750.1	1174
x2 = 0.7658	764.5	1192.1
x2 = 0.8937	788.1	1224.5

CCCCO [butan-1-ol]
Details	speed of sound [m/s]
[1]	1256.3

CCCCCC [hexane]
Details	speed of sound [m/s]
[1]	1098.9

C1CCCCC1 [cyclohexane] + CCCCO
[2]
Details	mass density [kg/m3]	speed of sound [m/s]
x2 = 0.00115	778.6	1278.7
x2 = 0.00245	778.5	1277.7
x2 = 0.0124	778.5	1274.6
x2 = 0.0262	778.7	1271.5
x2 = 0.04084	778.8	1269.3
x2 = 0.07249	779.3	1265.3
x2 = 0.1395	780.4	1258.6
x2 = 0.1897	781.4	1254.6
x2 = 0.3017	784	1248.8
x2 = 0.5175	790.4	1244.4
x2 = 0.6162	793.7	1244.8
x2 = 0.7983	800.8	1248.2

C1CCCCC1 [cyclohexane]
Details	speed of sound [m/s]
[1]	1279

Source: the NIST ThermoML archive (doi:10.1007/s10765-009-0665-4)
